# From patent publication US20250195553A1, “Use of Genipin-1-B-D-Gentiobioside in Preparation of Drug” (Guizhou Bailing Group Pharmaceutical Co., Ltd., priority 2023, published 2025)
# Marks after values point to notes of the source that are not given here.
# Experiments:
# [1] = tested on: Lipopolysaccharide (LPS)-induced pneumonia model in mice; assay: Inflammatory factors in lung tissue of LPS-induced pneumonia mice (ELISA); type: in vivo, ICR mice; conditions: i.v.
# Procedure: Sixty healthy mice, weighing 18˜20 g, half male and half female, were selected and randomly grouped after stratification by weight; they were divided into a normal control group, a model control group, three Genipin-1-β-D-gentiobioside dose groups (150 mg/kg/d, 75 mg/kg/d, 37.5 mg/kg/d), and a positive control drug Sivelestat Sodium 50 mg/kg/d group, with 10 mice in each group, half male and half female. After grouping, each treatment group was administered intravenously at 20 ml/kg once daily for 2 consecutive days, while the normal control group and model control group were injected with physiological saline. One hour after the second dose, except for the normal control group, the other groups were lightly anesthetized with isoflurane, and a 20 mg/ml LPS physiological saline solution was administered intranasally to the mice at 0.05 ml/mouse to induce the pneumonia model. Six hours after infection, the animals were sacrificed, dissected, and their lungs were removed and weighed to calculate the lung index (lung index=lung weight/body weight×100%).
# (1) Sample Collection and Storage: Tissue homogenate samples: The lung tissues of mice were collected and weighed, including those from mice numbered 1, 2, 3, 6, 7, and 8 in each group. The tissues were stored at […] An ultrasonic cell disruptor was used to homogenize the tissues, followed by centrifugation at […] and 1000 r/min for 10 minutes using a low-temperature high-speed centrifuge. The supernatant was then collected, aliquoted, and stored at −80° C. for future use, avoiding repeated freeze-thaw cycles.
# (2) The microwell plate, which had been equilibrated to room temperature, was removed from the sealed bag. Different concentrations of standards, experimental samples, or quality control samples were added to the corresponding wells, with 100 μL per well. The reaction wells were sealed with sealing tape and incubated at room temperature for 2 hours. The plate was then washed with wash buffer, repeating the operation four times. After the final wash, the plate was inverted and all residual liquid was patted dry on absorbent paper. Next, 100 μL of enzyme-labeled detection antibody was added to each microwell. The reaction wells were sealed again with sealing tape and incubated at room temperature for another 2 hours. The washing step was repeated as described above. Then, 100 μL of substrate solution was added to each microwell and incubated at room temperature for 30 minutes, protected from light. Within 30 minutes after adding 100 μL of stop solution to each microwell, the absorbance at 450 nm was measured using a microplate reader. The results were then calculated.
# [2] = tested on: Mycoplasma Pneumoniae (MP); assay: Pathological changes in lung tissue of MP-infected mice (HE staining); type: in vivo, BALB/C mice; set-up: Alveolitis Lesion Degree / Bronchial Damage / Histological Damage Degree: scale not given here
# Procedure: Fifty BALB/C mice, weighing 14±1 g, were randomly divided into five groups: a normal control group, a model control group, an azithromycin control group, a high-dose Genipin-1-β-D-gentiobioside group (75 mg/ml) with 15-minute nebulization, and a low-dose Genipin-1-β-D-gentiobioside group (37.5 mg/ml) with 15-minute nebulization. Each group consisted of 10 mice, with an equal number of males and females. Except for the normal control group, all mice were lightly anesthetized with isoflurane and infected intranasally with Mycoplasma Pneumoniae (50 μl per mouse) for three consecutive days. On the day of infection, each treatment group received nebulized medication once daily for four consecutive days, while the normal control group and model control group received nebulized saline under the same conditions. On the fifth day, the mice were weighed, sacrificed by cervical dislocation, and their lung tissues were dissected, weighed, and used to calculate the lung index and lung index inhibition rate; measure the levels of inflammatory factors in the lung tissue; measure the serum CRP levels; and conduct pathological examinations of the lung tissue. The results were statistically analyzed using the t-test for intergroup comparisons.
# 2.4 Pathological Changes in Mouse Lung Tissue (HE Staining Method)
# SARS-CoV-2 = assay: Protective effect against death in SARS-CoV-2 infected mice; type: in vivo, hACE2 transgenic C57BL/6 mice; conditions: for Number of Survivors / Number of Deaths: 8 mice; for Number of Deaths: 5-day
# Procedure: 1.1 Test Drug: Genipin-1-β-D-gentiobioside. […] Dosage for mice: 37.5 mg/kg and 75 mg/kg, administered by intraperitoneal injection once daily for 5 consecutive days.
# 1.2 Experimental Animals: human angiotensin-converting enzyme 2 (hACE2) transgenic C57BL/6 mice, aged 6˜7 weeks, weighing 18˜25 g, a total of 32 mice provided by GemPharmatech Co., Ltd., with a license number of SCXK (Su) 2018-008.
# 2.1 Grouping and Drug Administration: hACE2 transgenic C57BL/6 mice were divided into four groups, namely the blank control group, the SARS-CoV-2 infection group, the Genipin-1-β-D-gentiobioside (37.5 mg/kg) treatment group, and the Genipin-1-β-D-gentiobioside (75 mg/kg) treatment group, with 8 mice in each group. Except for the normal group, which received intranasal administration of Phosphate Buffered Saline (PBS), the other groups were infected with 10^4 Plaque Forming Unit (PFU) of Severe Acute Respiratory Syndrome Coronavirus 2 (SARS-CoV-2) virus via intranasal instillation. Two hours' post-infection, the treatment groups received intraperitoneal injections of the drug once daily for 5 consecutive days. Mouse deaths were recorded daily after infection, and the 5-day mortality rate was calculated. At the end of the experiment, the lung tissues were collected and homogenized for virus titer detection.
# [3] = Median particle size of nebulized test drug solutions; type: physicochemical
# Procedure: 1. Genipin-1-β-D gentiobioside 75 mg/ml group, median particle size is 2.02±0.06 μm; Genipin-1-β-D gentiobioside 37.5 mg/ml group, median particle size is 2.12±0.08 μm; Genipin-1-β-D gentiobioside […] group, median particle size is 2.01±0.09 μm; and Genipin-1-β-D gentiobioside 9.375 mg/ml group, median particle size is 2.07±0.06 μm. The nebulization time for each group is 25 minutes.
# [4] = High-Dose Group (75 mg/ml nebulization 15 min)
# [5] = Low-Dose Group (37.5 mg/ml nebulization 15 min)
# [6] = 37.5 mg/kg intraperitoneal once daily 5 days
# [7] = 75 mg/kg intraperitoneal once daily 5 days
structure (smiles),measurement,setting,value
COC(=O)C1=CO[C@@H](O[C@@H]2O[C@H](CO[C@@H]3O[C@H](CO)[C@@H](O)[C@H](O)[C@H]3O)[C@@H](O)[C@H](O)[C@H]2O)[C@@H]2C(CO)=CC[C@H]12 [Genipin-1-β-D-gentiobioside],Inflammatory Factor Levels in Lung Tissue IL-6,[1]; dosage 37.5 (mg/ml),16.53 ± 1.91 pg/mL
same,Inflammatory Factor Levels in Lung Tissue IL-10,[1]; dosage 37.5 (mg/ml),39.00 ± 8.37 pg/mL
same,Inflammatory Factor Levels in Lung Tissue TNF-α,[1]; dosage 37.5 (mg/ml),106.13 ± 15.70 pg/mL
same,Inflammatory Factor Levels in Lung Tissue IL-6,[1]; dosage 75 (mg/ml),17.72 ± 2.15 pg/mL
same,Inflammatory Factor Levels in Lung Tissue IL-10,[1]; dosage 75 (mg/ml),35.75 ± 6.74 pg/mL
same,Inflammatory Factor Levels in Lung Tissue TNF-α,[1]; dosage 75 (mg/ml),119.71 ± 19.76 pg/mL
same,Inflammatory Factor Levels in Lung Tissue IL-6,[1]; dosage 150 (mg/ml),16.63 ± 2.19 pg/mL
same,Inflammatory Factor Levels in Lung Tissue IL-10,[1]; dosage 150 (mg/ml),36.00 ± 5.14 pg/mL
same,Inflammatory Factor Levels in Lung Tissue TNF-α,[1]; dosage 150 (mg/ml),100.25 ± 12.41 pg/mL
same,Alveolitis Lesion Degree,[2]; [4],30.40*
same,Bronchial Damage,[2]; [4],26.60*
same,Histological Damage Degree,[2]; [4],1.50 ± 0.55
same,Interstitial Inflammatory Cell Infiltration,[2]; [4],30.60*
same,Pathological changes of lung tissue compared with the model group,"[2]; High-Dose Group, HE staining",significantly reduced
same,Alveolitis Lesion Degree,[2]; [5],39.35
same,Bronchial Damage,[2]; [5],52.35
same,Histological Damage Degree,[2]; [5],1.90 ± 0.39
same,"Pathological changes (alveolar wall thickening, inflammatory cell infiltration) compared with the model group","[2]; Low-Dose Group, HE staining",significantly reduced
same,Death Rate,SARS-CoV-2; [6],37.5%
same,Survival Rate,SARS-CoV-2; [6],62.5%
same,Number of Survivors,SARS-CoV-2; [6],5
same,Number of Deaths,SARS-CoV-2; [6],3
same,Death Rate,SARS-CoV-2; [7],25%
same,Survival Rate,SARS-CoV-2; [7],75%
same,Number of Survivors,SARS-CoV-2; [7],6
same,Number of Deaths,SARS-CoV-2; [7],2
same,Median particle size,[3]; 9.375 mg/ml group,2.07±0.06 μm
same,Median particle size,[3]; 18.755 mg/ml group,2.01±0.09 μm
same,Median particle size,[3]; 37.5 mg/ml group,2.12±0.08 μm
same,Median particle size,[3]; 75 mg/ml group,2.02±0.06 μm
